In this assay the test system is bovine βH crystallin. Nature of the assay: αB crystallin protein pin array with βH crystallin. Format: binding. Conditions: unheated βH crystallin, 23° C.; similar maxima pre-heated 45° C. The source says:
Synthesis of Pins, binding and detection of peptides binding to ligand proteins. The αB crystallin protein pin array was used to measure the interaction between peptides and chaperone target proteins including bovine βH crystallin, human γD crystallin, equine alcohol dehydrogenase (ADH) and porcine citrate synthase (CS) as described (FIG. 12). Ghosh and Clark, Protein Sci 14: 684-95, 2005.
Refer to the methods section for detailed protocols. The absorbance corresponding to the blue coloration in each well was measured at λ=450 nm and plotted against the amino acid sequence of the corresponding peptide in that well (FIGS. 13 and 14). Wells containing peptides that have strong interactions with target proteins are dark blue and wells containing peptides that have weak or no interaction with target proteins are light blue or clear.
The purity of the target proteins used in the pin array assays, bovine βH crystallin, human γD crystallin, equine alcohol dehydrogenase (ADH) and porcine citrate synthase (CS) were determined to be >90% by SDS-PAGE. In addition, primary antibodies for each target protein were specific to that target protein and consequently contaminating proteins that may bind to the peptides will not be detected. Eighty-four sequential and overlapping peptide fragments corresponding to residues 1-175 of human αB crystallin were synthesized employing a simultaneous peptide synthesis strategy developed by Geysen, called Multipin Peptide Synthesis (Mimotopes, San Diego, Calif.). Geysen, Southeast Asian J Trop Med Public Health 21: 523-33, 1990; Chin et al., J Org Chem 62: 538-539, 1997. Peptides were immobilized on derivatized polyethylene pins arranged in a microtiter ELISA plate format. Each peptide was eight amino acids in length and consecutive peptides were offset by two amino acids. All peptides were bound covalently to the surface of the plastic pins. The first peptide was 1MDIAIHHP8 and the last peptide was 168PAVTAAPK175 for human αB crystallin.
Ghosh and Clark, Protein Sci 14: 684-95, 2005. […] The intensity of the blue color in the wells was measured at 450 nm using an ELISA plate-reader (BioTek, Winooski, Vt.). The intensity of the blue color (plotted on the X-axis) was a measure of the interaction between αB crystallin peptides (plotted on the Y-axis) and target proteins. To measure the effect of temperature on the interactions between interactive peptides and the target proteins, the target proteins were heated in a water-bath at 45° C. for fifteen minutes prior to use. Pin arrays are unable to differentiate between monomers, dimers or oligomers of target proteins that exist in solution. Instead, pin arrays are very sensitive detectors of interactions between individual peptides and the entire population (monomers, dimers or oligomers) of specific target proteins that may exist in solution under specific conditions. Each target protein was assayed two to five times. A single pin array was used for all experiments and no change in interactions was observed after more than thirty repetitions. The last three peptides of the protein pin array, 163REEKPAVT170, 165EKPAVTAA172, 167PAVTAAPK174, correspond to the epitope (163REEKPAVTAAPKK175) recognized by the primary antibody for human αB crystallin. A positive reaction is observed for these three peptides in the absence of human αB crystallin as the ligand due to direct binding of the anti-human αB crystallin antibody to these three peptides. The loss of efficiency for the pin array was measured using this assay. The loss of efficiency for the pin array was determined to be <5% by after more than 30 assays.
Protein pin arrays enabled the identification of interactive sequences necessary for the chaperone activity of human αB crystallin. Interactions between immobilized 8-mer human αB crystallin peptides and unheated and pre-heated βH crystallin, a natural protein constitute of lens cells, were measured as absorbances at λ=450 nm at 23° C. […]

Turning to FSVNLDVK [Peptide 38], the “absorbance at 450 nm, interaction with βH crystallin” value was “Maximum absorbances”.
Consider LTITSSLS [Peptide 66], for which the “absorbance at 450 nm, interaction with βH crystallin” value is on record as “Maximum absorbances”.
The same measure for WIRRPFFP [Peptide 5]: “Maximum absorbances”.
